Data: ChEMBL document CHEMBL5303765, “Data for DCP probe BAY-7081” (2023)

Assays:
[1] = target: cGMP-inhibited 3',5'-cyclic phosphodiesterase 3B (Homo sapiens, UniProt Q13370); experiment: 3H-cAMP and 3H-cGMP Scintillation Proximity Assay (PDE3B)
[2] = target: D(2) dopamine receptor (Homo sapiens) (UniProt P14416); experiment: Dopamine D2L Eurofins Panlabs panel; conditions: Compound concentration 10.0 uM
[3] = target: Prostaglandin E2 receptor EP3 subtype (Homo sapiens) (UniProt P43115); experiment: Prostanoid EP3 Eurofins Panlabs panel; conditions: concentration not given here
[4] = target: 5-hydroxytryptamine receptor 4 (Cavia porcellus) (UniProt O70528); experiment: Serotonin (5-Hydroxytryptamine) 5-HT4 Eurofins Panlabs panel; conditions: Compound concentration 10.0 uM
[5] = target: Alpha-1B adrenergic receptor (Homo sapiens) (UniProt P35368); conditions: Compound concentration 10.0 uM
[6] = target: hERG (KCNH2) potassium channel (Homo sapiens, UniProt Q12809); experiment: Potassium Channel hERG Eurofins Panlabs panel; conditions: compound concentration 10 uM
[7] = target: P2X receptor (Rattus norvegicus) (UniProt P51579+P49653+P51578+Q64663+P47824+P51577+P49654); experiment: Purinergic P2X Eurofins Panlabs panel; type: protein assay; conditions: concentration not given here
[8] = target: Neuropeptide Y receptor type 1 (Homo sapiens) (UniProt P25929); experiment: Neuropeptide Y Y1 Eurofins Panlabs panel; conditions: Compound concentration 10.0 uM
[9] = target: Purinergic P2Y (Rattus norvegicus) (UniProt O35811+Q9EPX4+P49651+Q63371+P41232+O35881+Q6GUG4); experiment: Purinergic P2Y Eurofins Panlabs panel; type: protein assay; conditions: Compound concentration 10.0 uM
[10] = target: cGMP-specific 3',5'-cyclic phosphodiesterase (Homo sapiens, UniProt O76074); experiment: Phosphodiesterase PDE5 Eurofins Panlabs panel; conditions: Compound concentration 10.0 uM
[11] = target: Muscarinic acetylcholine receptor M3 (Homo sapiens) (UniProt P20309); experiment: Muscarinic M3 Eurofins Panlabs panel; conditions: Compound concentration 10.0 uM
[12] = target: D(2) dopamine receptor (Homo sapiens) (UniProt P14416); experiment: Dopamine D2S Eurofins Panlabs panel; conditions: Compound concentration 10.0 uM
[13] = target: T1, Alpha-2A adrenergic receptor (Homo sapiens) (UniProt P08913); experiment: Adrenergic alpha2A Eurofins Panlabs panel; conditions: Compound concentration 10.0 uM
T1 sequence (whole entry): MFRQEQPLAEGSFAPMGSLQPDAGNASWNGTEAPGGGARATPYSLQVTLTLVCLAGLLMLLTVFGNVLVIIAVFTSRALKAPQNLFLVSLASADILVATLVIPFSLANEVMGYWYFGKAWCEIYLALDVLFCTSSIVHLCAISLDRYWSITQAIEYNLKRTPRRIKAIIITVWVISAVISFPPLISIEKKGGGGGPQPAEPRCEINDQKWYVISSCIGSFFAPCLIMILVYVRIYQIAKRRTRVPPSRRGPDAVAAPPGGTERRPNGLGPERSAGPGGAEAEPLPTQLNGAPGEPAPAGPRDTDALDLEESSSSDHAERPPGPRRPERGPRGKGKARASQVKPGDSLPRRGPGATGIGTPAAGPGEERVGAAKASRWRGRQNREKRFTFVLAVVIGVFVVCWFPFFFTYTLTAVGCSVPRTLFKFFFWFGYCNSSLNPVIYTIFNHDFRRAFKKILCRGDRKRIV

[14] = target: Vasopressin V1a receptor (Homo sapiens) (UniProt P37288); experiment: Vasopressin V1A Eurofins Panlabs panel; conditions: concentration not given here
[15] = target: Polyunsaturated fatty acid lipoxygenase ALOX15 (Homo sapiens) (UniProt P16050); experiment: Lipoxygenase 15-LO Eurofins Panlabs panel; conditions: Compound concentration 10.0 uM
[16] = target: Growth hormone secretagogue receptor type 1 (Homo sapiens) (UniProt Q92847); experiment: Growth Hormone Secretagogue (GHS, Ghrelin) Eurofins Panlabs panel; conditions: Compound concentration 10.0 uM
[17] = target: T2, 5-hydroxytryptamine receptor 2C (Homo sapiens) (UniProt P28335); experiment: Serotonin (5-Hydroxytryptamine) 5-HT2C Eurofins Panlabs panel; conditions: Compound concentration 10.0 uM
T2 sequence (whole entry): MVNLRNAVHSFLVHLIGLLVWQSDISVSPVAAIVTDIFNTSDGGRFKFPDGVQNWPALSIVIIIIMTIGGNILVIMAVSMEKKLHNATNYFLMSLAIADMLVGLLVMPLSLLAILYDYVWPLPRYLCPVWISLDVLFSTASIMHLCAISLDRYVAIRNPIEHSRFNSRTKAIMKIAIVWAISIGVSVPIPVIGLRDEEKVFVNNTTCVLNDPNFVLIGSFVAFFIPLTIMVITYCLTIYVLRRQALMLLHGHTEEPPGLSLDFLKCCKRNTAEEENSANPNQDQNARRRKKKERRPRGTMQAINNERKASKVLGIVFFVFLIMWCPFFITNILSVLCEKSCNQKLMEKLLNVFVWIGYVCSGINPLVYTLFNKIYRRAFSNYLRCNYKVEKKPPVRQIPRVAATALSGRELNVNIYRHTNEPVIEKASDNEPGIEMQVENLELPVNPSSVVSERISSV

[18] = target: Acetylcholinesterase (Homo sapiens) (UniProt P22303); experiment: Cholinesterase, Acetyl, ACES Eurofins Panlabs panel; conditions: Compound concentration 10.0 uM
[19] = target: Prostaglandin F2-alpha receptor (Homo sapiens) (UniProt P43088); experiment: Prostanoid FP Eurofins Panlabs panel; conditions: Compound concentration 10.0 uM
[20] = target: Glucocorticoid receptor (Homo sapiens) (UniProt P04150); experiment: Glucocorticoid Eurofins Panlabs panel; conditions: Compound concentration 10.0 uM
[21] = target: Dual 3',5'-cyclic-AMP and -GMP phosphodiesterase 11A (Homo sapiens, UniProt Q9HCR9); experiment: 3H-cAMP and 3H-cGMP Scintillation Proximity Assay (PDE11A)
[22] = target: Endothelin receptor type B (Homo sapiens) (UniProt P24530); experiment: Endothelin ETB Eurofins Panlabs panel; conditions: Compound concentration 10.0 uM
[23] = target: High affinity cAMP-specific and IBMX-insensitive 3',5'-cyclic phosphodiesterase 8A (Homo sapiens, UniProt O60658); experiment: 3H-cAMP and 3H-cGMP Scintillation Proximity Assay (PDE8A)
[24] = target: Adenosine receptor A1 (Homo sapiens) (UniProt P30542); experiment: Adenosine A1 Eurofins Panlabs panel; conditions: Compound concentration 10.0 uM
[25] = target: T3, 5-hydroxytryptamine receptor 3A (Homo sapiens) (UniProt P46098); experiment: Serotonin (5-Hydroxytryptamine) 5-HT3 Eurofins Panlabs panel; conditions: Compound concentration 10.0 uM
T3 sequence (whole entry): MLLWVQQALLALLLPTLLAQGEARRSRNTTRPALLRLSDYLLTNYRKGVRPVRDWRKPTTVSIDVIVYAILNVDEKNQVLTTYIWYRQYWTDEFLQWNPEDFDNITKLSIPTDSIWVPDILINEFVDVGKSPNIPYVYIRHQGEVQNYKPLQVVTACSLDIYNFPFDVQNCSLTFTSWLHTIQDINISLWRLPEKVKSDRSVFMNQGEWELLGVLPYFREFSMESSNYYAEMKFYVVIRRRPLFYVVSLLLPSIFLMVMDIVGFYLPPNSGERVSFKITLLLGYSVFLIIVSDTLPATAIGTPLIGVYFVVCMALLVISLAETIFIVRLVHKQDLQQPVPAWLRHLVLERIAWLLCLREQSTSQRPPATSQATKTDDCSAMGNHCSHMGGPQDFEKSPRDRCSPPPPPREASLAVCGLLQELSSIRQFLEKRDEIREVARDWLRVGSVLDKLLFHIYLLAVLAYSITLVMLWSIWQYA

[26] = target: Adenosine Transporter (Cavia porcellus) (UniProt H0V4R7+H0UUG1+H0V3Z5); experiment: Transporter, Adenosine Eurofins Panlabs panel; type: protein assay; conditions: Compound concentration 10.0 uM
[27] = target: cGMP-inhibited 3',5'-cyclic phosphodiesterase 3A (Homo sapiens) (UniProt Q14432); experiment: Panlabs assay PDE3A; parameters: compound concentration 10 uM; conditions: at 10 µM
Sequence of cGMP-inhibited 3',5'-cyclic phosphodiesterase 3A (Homo sapiens) (Q14432 whole entry): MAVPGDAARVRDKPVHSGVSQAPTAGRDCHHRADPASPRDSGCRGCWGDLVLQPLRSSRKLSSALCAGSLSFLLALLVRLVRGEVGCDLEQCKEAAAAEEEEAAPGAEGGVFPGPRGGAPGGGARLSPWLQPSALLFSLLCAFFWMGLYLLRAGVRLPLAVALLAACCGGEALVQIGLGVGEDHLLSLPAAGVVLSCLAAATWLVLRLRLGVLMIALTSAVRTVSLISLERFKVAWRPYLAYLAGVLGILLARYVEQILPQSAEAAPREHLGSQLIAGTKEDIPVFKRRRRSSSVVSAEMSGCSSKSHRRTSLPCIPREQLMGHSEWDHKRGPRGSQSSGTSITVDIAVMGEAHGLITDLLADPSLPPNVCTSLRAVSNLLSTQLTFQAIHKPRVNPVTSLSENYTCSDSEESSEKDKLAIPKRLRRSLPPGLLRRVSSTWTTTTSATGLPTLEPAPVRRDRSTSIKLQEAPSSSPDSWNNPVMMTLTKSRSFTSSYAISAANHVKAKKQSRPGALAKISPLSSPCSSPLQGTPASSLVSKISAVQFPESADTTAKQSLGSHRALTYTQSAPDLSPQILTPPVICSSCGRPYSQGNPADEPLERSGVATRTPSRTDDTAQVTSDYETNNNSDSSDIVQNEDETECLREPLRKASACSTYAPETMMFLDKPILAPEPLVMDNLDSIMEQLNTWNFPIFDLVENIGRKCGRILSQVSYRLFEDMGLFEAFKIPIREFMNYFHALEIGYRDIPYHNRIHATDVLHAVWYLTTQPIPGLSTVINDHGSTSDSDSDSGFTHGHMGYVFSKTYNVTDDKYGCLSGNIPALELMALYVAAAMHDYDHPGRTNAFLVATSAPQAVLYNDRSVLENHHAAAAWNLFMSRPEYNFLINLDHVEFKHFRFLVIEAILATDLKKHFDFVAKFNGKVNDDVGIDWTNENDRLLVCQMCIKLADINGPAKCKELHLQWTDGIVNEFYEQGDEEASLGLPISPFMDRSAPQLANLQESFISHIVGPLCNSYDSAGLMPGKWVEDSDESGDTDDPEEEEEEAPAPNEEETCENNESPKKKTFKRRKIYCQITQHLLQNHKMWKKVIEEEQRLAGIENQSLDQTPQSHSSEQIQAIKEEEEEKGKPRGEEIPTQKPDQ

Sequence of Alpha-1B adrenergic receptor (Homo sapiens) (P35368 whole entry): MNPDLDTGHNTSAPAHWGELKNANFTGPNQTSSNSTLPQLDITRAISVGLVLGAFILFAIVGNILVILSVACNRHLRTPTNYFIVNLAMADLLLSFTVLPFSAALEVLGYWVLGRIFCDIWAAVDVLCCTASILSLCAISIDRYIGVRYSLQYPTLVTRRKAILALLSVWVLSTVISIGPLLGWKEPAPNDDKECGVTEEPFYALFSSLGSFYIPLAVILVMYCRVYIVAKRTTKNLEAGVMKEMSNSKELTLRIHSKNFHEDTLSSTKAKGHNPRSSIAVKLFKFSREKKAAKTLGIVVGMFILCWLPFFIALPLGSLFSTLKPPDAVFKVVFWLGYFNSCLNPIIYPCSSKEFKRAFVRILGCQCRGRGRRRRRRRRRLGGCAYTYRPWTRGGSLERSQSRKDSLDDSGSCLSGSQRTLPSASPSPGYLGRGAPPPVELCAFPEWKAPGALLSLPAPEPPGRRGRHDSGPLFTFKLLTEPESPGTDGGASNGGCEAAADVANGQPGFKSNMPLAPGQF
Sequence of D(2) dopamine receptor (Homo sapiens) (P14416 whole entry): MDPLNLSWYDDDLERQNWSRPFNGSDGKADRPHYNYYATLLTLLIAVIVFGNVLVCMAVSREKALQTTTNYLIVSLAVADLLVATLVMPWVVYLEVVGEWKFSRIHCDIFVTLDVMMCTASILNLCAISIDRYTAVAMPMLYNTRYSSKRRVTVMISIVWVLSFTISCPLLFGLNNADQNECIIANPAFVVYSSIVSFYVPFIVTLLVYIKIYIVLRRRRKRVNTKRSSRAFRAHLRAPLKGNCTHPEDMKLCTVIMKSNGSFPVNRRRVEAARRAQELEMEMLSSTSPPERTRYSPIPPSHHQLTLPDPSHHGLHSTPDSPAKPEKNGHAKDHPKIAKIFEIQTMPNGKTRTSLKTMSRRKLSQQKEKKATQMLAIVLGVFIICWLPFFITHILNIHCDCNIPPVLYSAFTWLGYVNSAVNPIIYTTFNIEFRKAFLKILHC
Sequence of Muscarinic acetylcholine receptor M3 (Homo sapiens) (P20309 whole entry, looked up): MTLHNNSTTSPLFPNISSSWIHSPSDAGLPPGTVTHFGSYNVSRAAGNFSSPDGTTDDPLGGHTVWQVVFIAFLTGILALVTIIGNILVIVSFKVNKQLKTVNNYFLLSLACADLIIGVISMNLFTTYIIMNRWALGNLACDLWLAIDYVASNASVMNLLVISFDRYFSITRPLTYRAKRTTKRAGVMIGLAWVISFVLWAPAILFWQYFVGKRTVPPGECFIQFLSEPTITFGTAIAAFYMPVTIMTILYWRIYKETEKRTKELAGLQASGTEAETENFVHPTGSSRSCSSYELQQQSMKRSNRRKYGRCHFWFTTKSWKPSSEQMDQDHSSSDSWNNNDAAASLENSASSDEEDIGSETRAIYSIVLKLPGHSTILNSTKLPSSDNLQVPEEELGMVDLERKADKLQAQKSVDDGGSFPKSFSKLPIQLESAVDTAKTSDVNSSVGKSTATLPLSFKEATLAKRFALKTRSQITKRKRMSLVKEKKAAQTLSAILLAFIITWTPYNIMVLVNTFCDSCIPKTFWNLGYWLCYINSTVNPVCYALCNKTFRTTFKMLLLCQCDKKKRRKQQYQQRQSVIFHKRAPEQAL
Sequence of Adenosine receptor A1 (Homo sapiens) (P30542 whole entry): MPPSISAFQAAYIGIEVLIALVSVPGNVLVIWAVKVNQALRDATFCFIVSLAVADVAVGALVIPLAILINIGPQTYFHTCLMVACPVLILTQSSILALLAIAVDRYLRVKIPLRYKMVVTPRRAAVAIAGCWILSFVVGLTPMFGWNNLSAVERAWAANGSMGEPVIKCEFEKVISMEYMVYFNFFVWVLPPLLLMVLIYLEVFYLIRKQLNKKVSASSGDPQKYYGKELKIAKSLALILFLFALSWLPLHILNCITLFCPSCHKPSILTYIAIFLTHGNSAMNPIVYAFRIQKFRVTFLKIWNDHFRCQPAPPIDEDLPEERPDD
Sequence of Glucocorticoid receptor (Homo sapiens) (P04150 whole entry): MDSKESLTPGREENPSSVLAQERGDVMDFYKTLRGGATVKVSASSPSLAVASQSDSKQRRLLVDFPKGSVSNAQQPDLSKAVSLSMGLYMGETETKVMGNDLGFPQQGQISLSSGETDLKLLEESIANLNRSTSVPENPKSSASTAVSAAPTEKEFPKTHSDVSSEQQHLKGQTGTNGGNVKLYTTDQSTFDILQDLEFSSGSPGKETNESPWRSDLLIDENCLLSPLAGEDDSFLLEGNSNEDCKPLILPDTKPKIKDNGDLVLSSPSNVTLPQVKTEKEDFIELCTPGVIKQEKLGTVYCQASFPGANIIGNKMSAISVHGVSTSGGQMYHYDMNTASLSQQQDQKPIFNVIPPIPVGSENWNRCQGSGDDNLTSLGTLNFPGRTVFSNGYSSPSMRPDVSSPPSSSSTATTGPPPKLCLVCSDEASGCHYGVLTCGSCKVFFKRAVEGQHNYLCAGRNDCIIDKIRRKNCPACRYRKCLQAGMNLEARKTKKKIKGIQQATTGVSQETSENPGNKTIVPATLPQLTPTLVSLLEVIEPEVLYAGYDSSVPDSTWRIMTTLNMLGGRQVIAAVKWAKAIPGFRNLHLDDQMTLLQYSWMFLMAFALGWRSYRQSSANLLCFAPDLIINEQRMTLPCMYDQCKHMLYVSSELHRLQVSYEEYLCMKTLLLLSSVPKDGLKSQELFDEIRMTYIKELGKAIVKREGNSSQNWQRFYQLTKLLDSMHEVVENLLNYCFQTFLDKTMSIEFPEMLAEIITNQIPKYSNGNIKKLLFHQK
Sequence of High affinity cAMP-specific and IBMX-insensitive 3',5'-cyclic phosphodiesterase 8A (O60658 whole entry): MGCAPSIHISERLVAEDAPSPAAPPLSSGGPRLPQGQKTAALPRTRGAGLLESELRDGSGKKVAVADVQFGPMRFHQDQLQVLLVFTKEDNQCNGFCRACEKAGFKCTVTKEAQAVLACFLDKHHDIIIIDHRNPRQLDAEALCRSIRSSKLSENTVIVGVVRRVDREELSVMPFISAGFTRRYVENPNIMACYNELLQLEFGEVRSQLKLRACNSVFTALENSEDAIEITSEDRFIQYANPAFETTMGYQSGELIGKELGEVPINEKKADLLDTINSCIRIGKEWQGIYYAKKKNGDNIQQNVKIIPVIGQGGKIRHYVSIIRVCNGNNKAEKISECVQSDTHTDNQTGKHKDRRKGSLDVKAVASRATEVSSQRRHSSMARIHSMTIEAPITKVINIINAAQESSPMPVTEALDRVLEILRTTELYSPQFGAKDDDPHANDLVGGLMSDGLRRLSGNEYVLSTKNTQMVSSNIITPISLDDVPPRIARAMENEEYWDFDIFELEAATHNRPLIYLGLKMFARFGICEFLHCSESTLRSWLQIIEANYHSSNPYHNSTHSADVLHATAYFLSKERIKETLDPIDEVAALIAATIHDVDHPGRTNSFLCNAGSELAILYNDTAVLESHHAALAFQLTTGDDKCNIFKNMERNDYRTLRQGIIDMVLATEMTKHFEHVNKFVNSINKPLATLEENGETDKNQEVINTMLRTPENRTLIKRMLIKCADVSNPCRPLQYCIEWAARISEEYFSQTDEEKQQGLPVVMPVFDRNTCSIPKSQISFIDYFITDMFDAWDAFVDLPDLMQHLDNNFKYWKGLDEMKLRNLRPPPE
Sequence of 5-hydroxytryptamine receptor 4 (Cavia porcellus) (O70528 whole entry): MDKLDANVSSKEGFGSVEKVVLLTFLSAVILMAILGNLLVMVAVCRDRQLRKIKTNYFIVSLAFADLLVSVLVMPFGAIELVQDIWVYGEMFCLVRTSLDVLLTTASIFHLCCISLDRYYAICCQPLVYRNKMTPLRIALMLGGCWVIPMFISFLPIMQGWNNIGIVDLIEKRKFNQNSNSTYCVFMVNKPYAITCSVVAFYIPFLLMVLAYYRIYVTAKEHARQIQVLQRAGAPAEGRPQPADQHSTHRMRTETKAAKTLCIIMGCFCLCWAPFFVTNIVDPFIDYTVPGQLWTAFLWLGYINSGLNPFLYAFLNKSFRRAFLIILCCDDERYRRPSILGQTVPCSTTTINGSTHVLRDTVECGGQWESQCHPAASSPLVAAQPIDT

CCC[C@H]1CNCc2c1[nH]c(=O)c(C#N)c2N1CCC2(CC1)CC2
IC50 [1]: > 10 µM (not active)
inhibition [2]: 12%
inhibition [3]: 0%
inhibition [4]: 22%
inhibition [5]: 4.43%
inhibition at 10 µM [6]: 18.5%
inhibition [7]: 0%
inhibition [8]: 15%
inhibition [9]: 5%
inhibition [10]: 59%
inhibition [11]: -9%
inhibition [12]: -2%
inhibition [13]: 28%
inhibition [14]: 0%
inhibition [15]: -6%
inhibition [16]: 9%
inhibition [17]: 5%
inhibition [18]: 5%
inhibition [19]: 13%
inhibition [20]: 4.67%
IC50 [21]: 6.6 µM (not active)
inhibition [22]: 8%
IC50 [23]: 1.49 µM (not active)
inhibition [24]: 16%
inhibition [25]: 3.75%
inhibition [26]: 4%

CCC[C@@H]1CNCc2c1[nH]c(=O)c(C#N)c2N1CCC2(CC1)CC2
inhibition [27]: -1.3%
